In US20230017045A1, “PYRIDINE AND PYRIMIDINE CARBOXYLATE HERBICIDES AND METHODS OF USE THEREOF” (Dow AgroSciences LLC, priority 2017, published 2023):

These molecules were tested on test plant species (assay: Post-emergent herbicidal activity test (greenhouse, foliar spray, visual growth reduction)). Conditions: post-emergence, 336 h, ALOMY: blackgrass (Alopecurus myosuroides), 140 g ai/ha, 14 days after application, read-out: Visual Growth Reduction (%) 14 Days After Application, ALOMY.
Assay type: in vivo
Method in brief: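 Greenhouse plants at first–second true leaf stage sprayed overhead at 187 L/ha with compound in acetone/water/isopropanol/DMSO/crop oil/X-77 carrier; controls received solvent blank. Injury rated visually after 14 d on a 0–100% scale versus untreated and control plants, converted to growth reduction.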

Row | Compound | pest or weed control at 140 g/ha
1 | COC(=O)c1nc(-c2ccc(C(F)(F)F)cc2C)c(F)cc1Cl [F170, Methyl 3-chloro-5-fluoro-6-(2-methyl-4-(trifluoromethyl)phenyl)picolinate] | 45 to 59%
2 | O=C(O)c1nc(-c2cc3c(cc2Cl)OCO3)ccc1Cl [F148, 3-Chloro-6-(6-chlorobenzo[d][1,3]dioxol-5-yl)picolinic acid] | 0 to 29%

Same assay, conditions: post-emergence, 336 h, AMARE: redroot pigweed (Amaranthus retroflexus), 140 g ai/ha, 14 days after application, read-out: Visual Growth Reduction (%) 14 Days After Application, AMARE

Row | Compound | pest or weed control at 140 g/ha
3 | COC(=O)c1nc(-c2ccc(C(F)(F)F)cc2C)c(F)cc1Cl [F170, Methyl 3-chloro-5-fluoro-6-(2-methyl-4-(trifluoromethyl)phenyl)picolinate] | 95 to 100%
4 | O=C(O)c1nc(-c2cc3c(cc2Cl)OCO3)ccc1Cl [F148, 3-Chloro-6-(6-chlorobenzo[d][1,3]dioxol-5-yl)picolinic acid] | 75 to 84%

Same assay, conditions: post-emergence, 336 h, AVEFA: wild oat (Avena fatua), 140 g ai/ha, 14 days after application, read-out: Visual Growth Reduction (%) 14 Days After Application, AVEFA

Row | Compound | pest or weed control at 140 g/ha
5 | COC(=O)c1nc(-c2ccc(C(F)(F)F)cc2C)c(F)cc1Cl [F170, Methyl 3-chloro-5-fluoro-6-(2-methyl-4-(trifluoromethyl)phenyl)picolinate] | 30 to 44%
6 | O=C(O)c1nc(-c2cc3c(cc2Cl)OCO3)ccc1Cl [F148, 3-Chloro-6-(6-chlorobenzo[d][1,3]dioxol-5-yl)picolinic acid] | 0 to 29%

Same assay, conditions: post-emergence, 336 h, CHEAL: lambsquarters (Chenopodium album), 140 g ai/ha, 14 days after application, read-out: Visual Growth Reduction (%) 14 Days After Application, CHEAL

Row | Compound | pest or weed control at 140 g/ha
7 | COC(=O)c1nc(-c2ccc(C(F)(F)F)cc2C)c(F)cc1Cl [F170, Methyl 3-chloro-5-fluoro-6-(2-methyl-4-(trifluoromethyl)phenyl)picolinate] | 95 to 100%
8 | O=C(O)c1nc(-c2cc3c(cc2Cl)OCO3)ccc1Cl [F148, 3-Chloro-6-(6-chlorobenzo[d][1,3]dioxol-5-yl)picolinic acid] | 75 to 84%

Same assay, conditions: post-emergence, 336 h, CIRAR: canada thistle (Cirsium arvense), 140 g ai/ha, 14 days after application, read-out: Visual Growth Reduction (%) 14 Days After Application, CIRAR

Row | Compound | pest or weed control at 140 g/ha
9 | COC(=O)c1nc(-c2ccc(C(F)(F)F)cc2C)c(F)cc1Cl [F170, Methyl 3-chloro-5-fluoro-6-(2-methyl-4-(trifluoromethyl)phenyl)picolinate] | 85 to 94%
10 | O=C(O)c1nc(-c2cc3c(cc2Cl)OCO3)ccc1Cl [F148, 3-Chloro-6-(6-chlorobenzo[d][1,3]dioxol-5-yl)picolinic acid] | 0 to 29%

Same assay, conditions: post-emergence, 336 h, CYPES: yellow nutsedge (Cyperus esculentus), 140 g ai/ha, 14 days after application, read-out: Visual Growth Reduction (%) 14 Days After Application, CYPES

Row | Compound | pest or weed control at 140 g/ha
11 | COC(=O)c1nc(-c2ccc(C(F)(F)F)cc2C)c(F)cc1Cl [F170, Methyl 3-chloro-5-fluoro-6-(2-methyl-4-(trifluoromethyl)phenyl)picolinate] | 60 to 74%

Same assay, conditions: post-emergence, 336 h, DIGSA: crabgrass (Digitaria sanguinalis), 140 g ai/ha, 14 days after application, read-out: Visual Growth Reduction (%) 14 Days After Application, DIGSA

Row | Compound | pest or weed control at 140 g/ha
12 | COC(=O)c1nc(-c2ccc(C(F)(F)F)cc2C)c(F)cc1Cl [F170, Methyl 3-chloro-5-fluoro-6-(2-methyl-4-(trifluoromethyl)phenyl)picolinate] | 85 to 94%
13 | O=C(O)c1nc(-c2cc3c(cc2Cl)OCO3)ccc1Cl [F148, 3-Chloro-6-(6-chlorobenzo[d][1,3]dioxol-5-yl)picolinic acid] | 0 to 29%

Same assay, conditions: post-emergence, 336 h, ECHCG: barnyardgrass (Echinochloa crus-galli), 140 g ai/ha, 14 days after application, read-out: Visual Growth Reduction (%) 14 Days After Application, ECHCG

Row | Compound | pest or weed control at 140 g/ha
14 | COC(=O)c1nc(-c2ccc(C(F)(F)F)cc2C)c(F)cc1Cl [F170, Methyl 3-chloro-5-fluoro-6-(2-methyl-4-(trifluoromethyl)phenyl)picolinate] | 60 to 74%
15 | O=C(O)c1nc(-c2cc3c(cc2Cl)OCO3)ccc1Cl [F148, 3-Chloro-6-(6-chlorobenzo[d][1,3]dioxol-5-yl)picolinic acid] | 0 to 29%

Same assay, conditions: post-emergence, 336 h, IPOHE: ivy-leaf morning glory (Ipomoea hederacea), 140 g ai/ha, 14 days after application, read-out: Visual Growth Reduction (%) 14 Days After Application, IPOHE

Row | Compound | pest or weed control at 140 g/ha
16 | COC(=O)c1nc(-c2ccc(C(F)(F)F)cc2C)c(F)cc1Cl [F170, Methyl 3-chloro-5-fluoro-6-(2-methyl-4-(trifluoromethyl)phenyl)picolinate] | 95 to 100%
17 | O=C(O)c1nc(-c2cc3c(cc2Cl)OCO3)ccc1Cl [F148, 3-Chloro-6-(6-chlorobenzo[d][1,3]dioxol-5-yl)picolinic acid] | 30 to 44%

Same assay, conditions: post-emergence, 336 h, KCHSC: kochia (Bassia scoparia), 140 g ai/ha, 14 days after application, read-out: Visual Growth Reduction (%) 14 Days After Application, KCHSC

Row | Compound | pest or weed control at 140 g/ha
18 | COC(=O)c1nc(-c2ccc(C(F)(F)F)cc2C)c(F)cc1Cl [F170, Methyl 3-chloro-5-fluoro-6-(2-methyl-4-(trifluoromethyl)phenyl)picolinate] | 60 to 74%
19 | O=C(O)c1nc(-c2cc3c(cc2Cl)OCO3)ccc1Cl [F148, 3-Chloro-6-(6-chlorobenzo[d][1,3]dioxol-5-yl)picolinic acid] | 0 to 29%

Same assay, conditions: post-emergence, 336 h, ORYSA: rice (Oryza sativa), 140 g ai/ha, 14 days after application, read-out: Visual Growth Reduction (%) 14 Days After Application, ORYSA

Row | Compound | pest or weed control at 140 g/ha
20 | COC(=O)c1nc(-c2ccc(C(F)(F)F)cc2C)c(F)cc1Cl [F170, Methyl 3-chloro-5-fluoro-6-(2-methyl-4-(trifluoromethyl)phenyl)picolinate] | 0 to 29%
21 | O=C(O)c1nc(-c2cc3c(cc2Cl)OCO3)ccc1Cl [F148, 3-Chloro-6-(6-chlorobenzo[d][1,3]dioxol-5-yl)picolinic acid] | 0 to 29%

Same assay, conditions: post-emergence, 336 h, SETFA: giant foxtail (Setaria faberi), 140 g ai/ha, 14 days after application, read-out: Visual Growth Reduction (%) 14 Days After Application, SETFA

Row | Compound | pest or weed control at 140 g/ha
22 | COC(=O)c1nc(-c2ccc(C(F)(F)F)cc2C)c(F)cc1Cl [F170, Methyl 3-chloro-5-fluoro-6-(2-methyl-4-(trifluoromethyl)phenyl)picolinate] | 85 to 94%
23 | O=C(O)c1nc(-c2cc3c(cc2Cl)OCO3)ccc1Cl [F148, 3-Chloro-6-(6-chlorobenzo[d][1,3]dioxol-5-yl)picolinic acid] | 0 to 29%

Same assay, conditions: post-emergence, 336 h, SORVU: grain sorghum (Sorghum vulgare), 140 g ai/ha, 14 days after application, read-out: Visual Growth Reduction (%) 14 Days After Application, SORVU

Row | Compound | pest or weed control at 140 g/ha
24 | COC(=O)c1nc(-c2ccc(C(F)(F)F)cc2C)c(F)cc1Cl [F170, Methyl 3-chloro-5-fluoro-6-(2-methyl-4-(trifluoromethyl)phenyl)picolinate] | 85 to 94%
25 | O=C(O)c1nc(-c2cc3c(cc2Cl)OCO3)ccc1Cl [F148, 3-Chloro-6-(6-chlorobenzo[d][1,3]dioxol-5-yl)picolinic acid] | 0 to 29%

Same assay, conditions: post-emergence, 336 h, STEME: common chickweed (Stellaria media), 140 g ai/ha, 14 days after application, read-out: Visual Growth Reduction (%) 14 Days After Application, STEME

Row | Compound | pest or weed control at 140 g/ha
26 | COC(=O)c1nc(-c2ccc(C(F)(F)F)cc2C)c(F)cc1Cl [F170, Methyl 3-chloro-5-fluoro-6-(2-methyl-4-(trifluoromethyl)phenyl)picolinate] | 0 to 29%
27 | O=C(O)c1nc(-c2cc3c(cc2Cl)OCO3)ccc1Cl [F148, 3-Chloro-6-(6-chlorobenzo[d][1,3]dioxol-5-yl)picolinic acid] | 0 to 29%

Same assay, conditions: post-emergence, 336 h, TRZAS: wheat, spring (Triticum aestivum), 140 g ai/ha, 14 days after application, read-out: Visual Growth Reduction (%) 14 Days After Application, TRZAS

Row | Compound | pest or weed control at 140 g/ha
28 | COC(=O)c1nc(-c2ccc(C(F)(F)F)cc2C)c(F)cc1Cl [F170, Methyl 3-chloro-5-fluoro-6-(2-methyl-4-(trifluoromethyl)phenyl)picolinate] | 60 to 74%
29 | O=C(O)c1nc(-c2cc3c(cc2Cl)OCO3)ccc1Cl [F148, 3-Chloro-6-(6-chlorobenzo[d][1,3]dioxol-5-yl)picolinic acid] | 0 to 29%
